Results: publication PMC6130513, “In vitro inhibitory effects of Friedelin on human liver cytochrome P450 enzymes” (Pharmaceutical Biology, 2018)

Legend:
CYP2E1 [1] = biological target: T1, CYP2E1 (Homo sapiens, UniProt P05181); assay: Time-dependent inhibition study of CYP2E1 in human liver microsomes; assay type: in vitro ADME; details: Friedelin 20 μM, 30 min preincubation with HLM and NADPH
T1 construct: effects of Friedelin on CYP2E1 catalyzed reactions (chlorzoxazone 6-hydroxylation) in pooled HLM; from tissue; host or cells: pooled human liver microsomes
Protocol: (§1) To determine whether Friedelin could inhibit the activity of CYP3A4 and 2E1 in a time-dependent manner, Friedelin (20 μM) was preincubated with HLMs (1 mg/mL) in the presence of an NADPH-generating system for 30 min at 37 °C. After incubation, an aliquot (20 μL) was transferred to another incubation tube (final volume 200 μL) containing an NADPH-generating system and probe substrates whose final concentrations were approximate to Km. Then, further incubations were performed to measure the residual activity. After being incubated for different time (0–30 min), the reactions were terminated by adding a 100 μL acetonitrile internal standard mix and then placed on ice; the corresponding metabolites were determined by HPLC.

CYP2E1 [2] = biological target: T1, CYP2E1; assay: CYP2E1 inhibition in pooled human liver microsomes (chlorzoxazone 6-hydroxylation); assay type: in vitro ADME; details: pooled HLMs
Protocol: (§2) All incubations were performed in triplicate, and the mean values were utilized. The typical incubation systems contained 100 mM potassium phosphate buffer (pH 7.4), NADPH generating system (1 mM NADP^+, 10 mM glucose-6-phosphate, 1 U/mL of glucose-6-phosphate dehydrogenase, and 4 mM MgCl2), the appropriate concentration of HLMs, a corresponding probe substrate and Friedelin (or positive inhibitor for different probe reactions) in a final volume of 200 μL.
(§3) The concentration of Friedelin was 100 μM, and the positive inhibitor concentrations were as follows: 1 μM ketoconazole for CYP3A4, 10 μM furafylline for CYP1A2, 10 μM tranylcypromine for CYP2A6, 50 μM clomethiazole for CYP2E1, 10 μM quinidine for CYP2D6, 10 μM sulfaphenazole for CYP2C9, 50 μM tranylcypromine for CYP2C19, 5 μM montelukast for CYP2C8. Probe substrates, positive inhibitors (except for dextromethorphan and quinidine which were dissolved in water) and Friedelin were dissolved in methanol, with a final concentration of 1% (v/v) and 1% neat methanol was added to the incubations without inhibitor. There was a 3 min preincubation period (at 37 °C) before the reaction was initiated by adding an NADPH-generating system. The reaction was terminated by adding a 100 μL acetonitrile (10% trichloroacetic acid for CYP2A6) internal standard mix, and the solution was placed on ice. The mixture was centrifuged at 12,000 rpm for 10 min, and an aliquot (50 μL) of the supernatant was transferred for HPLC analysis. The instrument used in this study were Agilent 1260 series instrument with DAD and FLD detector, and the quantitative assay for the corresponding metabolites was performed as previously reported (Lang et al. [2016]; Zhang et al. [2017]).
(§4) Friedelin (100 μM) was used to initially screen for its direct inhibitory effects toward different human CYP isoforms. […] Ki values were obtained by incubating various concentrations of different probe substrates (20–100 μM testosterone, 25–200 μM chlorzoxazone) in the presence of 0–50 μM Friedelin.
(§5) The enzyme kinetic parameters for the probe reaction were estimated from the best fit line using least-squares linear regression of the inverse substrate concentration versus the inverse velocity (Lineweaver–Burk plots), and the mean values were used to calculate Vmax and Km. Inhibition data from the experiments that were conducted using multiple compound concentrations were represented by Dixon plots, and inhibition constant (Ki) values were calculated using nonlinear regression according to the following equation: v=(VmaxS)/(Km(1+I/Ki)+S), where I is the concentration of the compound, Ki is the inhibition constant, S is the concentration of the substrate, and Km is the substrate concentration at half the maximum velocity (Vmax) of the reaction. […]

CYP2C9 = biological target: T2, CYP2C9 (Homo sapiens, UniProt P11712); assay: CYP2C9 inhibition in pooled human liver microsomes (diclofenac 4'-hydroxylation); assay type: in vitro ADME; details: Friedelin 100 μM, pooled HLMs
T2 construct: from tissue; host or cells: human liver microsomes
Protocol: as §2
as §3, with “There was a 3 min preincubation period (at 37 °C) before the reaction was initiated by adding an NADPH-generating system. The reaction was terminated by adding a 100 μL acetonitrile (10% trichloroacetic acid for CYP2A6) internal standard mix, and the solution was placed on ice. The mixture was centrifuged at 12,000 rpm for 10 min, and an aliquot (50 μL) of the supernatant was transferred for HPLC analysis.” left out, “[2017]). […]” for “[2017]).”

CYP2C19 = biological target: T3, CYP2C19 (Homo sapiens, UniProt P33261); assay: CYP2C19 inhibition in pooled human liver microsomes (S-mephenytoin 4-hydroxylation); assay type: in vitro ADME; details: Friedelin 100 μM, pooled HLMs
T3 construct: from tissue; host or cells: human liver microsomes
Protocol: as §2
as §3, with “There was a 3 min preincubation period (at 37 °C) before the reaction was initiated by adding an NADPH-generating system. The reaction was terminated by adding a 100 μL acetonitrile (10% trichloroacetic acid for CYP2A6) internal standard mix, and the solution was placed on ice. The mixture was centrifuged at 12,000 rpm for 10 min, and an aliquot (50 μL) of the supernatant was transferred for HPLC analysis.” left out, “[2017]). […]” for “[2017]).”

CYP3A4 [3] = biological target: T4, CYP3A4 (Homo sapiens, UniProt P08684); assay: Time-dependent inhibition study of CYP3A4 in human liver microsomes; assay type: in vitro ADME
T4 construct: effects of Friedelin on CYP3A4 catalyzed reactions (testosterone 6β-hydroxylation) in pooled HLM; from tissue; host or cells: pooled human liver microsomes
Protocol: as §1, with “HPLC. To determine the Ki and kinact values for the inactivation of CYP3A4, the incubations were conducted using higher probe substrate concentrations (approximately 4-fold Km values) and various concentrations of Friedelin (0–50 μM) after different preincubation times (0–30 min), with a two-step incubation scheme, as described above.” for “HPLC.”

CYP2C8 = biological target: T5, CYP2C8 (Homo sapiens, UniProt P10632); assay: CYP2C8 inhibition in pooled human liver microsomes (paclitaxel 6α-hydroxylation); assay type: in vitro ADME; details: Friedelin 100 μM, pooled HLMs
T5 construct: from tissue; host or cells: human liver microsomes
T5 sequence (P10632 1-490): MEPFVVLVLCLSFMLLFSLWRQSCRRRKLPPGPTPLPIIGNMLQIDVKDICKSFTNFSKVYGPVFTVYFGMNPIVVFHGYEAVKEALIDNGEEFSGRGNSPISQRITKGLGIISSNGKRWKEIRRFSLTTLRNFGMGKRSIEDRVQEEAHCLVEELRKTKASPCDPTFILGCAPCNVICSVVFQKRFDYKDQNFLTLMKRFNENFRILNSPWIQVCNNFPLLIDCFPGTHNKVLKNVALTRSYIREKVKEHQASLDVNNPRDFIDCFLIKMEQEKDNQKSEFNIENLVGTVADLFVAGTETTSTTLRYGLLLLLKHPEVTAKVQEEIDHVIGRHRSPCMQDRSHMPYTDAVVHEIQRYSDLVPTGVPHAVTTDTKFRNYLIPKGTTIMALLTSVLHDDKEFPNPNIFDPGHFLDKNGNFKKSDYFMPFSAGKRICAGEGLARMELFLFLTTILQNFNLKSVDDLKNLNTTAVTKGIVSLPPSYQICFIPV
Protocol: as §2
as §3, with “There was a 3 min preincubation period (at 37 °C) before the reaction was initiated by adding an NADPH-generating system. The reaction was terminated by adding a 100 μL acetonitrile (10% trichloroacetic acid for CYP2A6) internal standard mix, and the solution was placed on ice. The mixture was centrifuged at 12,000 rpm for 10 min, and an aliquot (50 μL) of the supernatant was transferred for HPLC analysis.” left out, “[2017]). […]” for “[2017]).”

CYP1A2 = biological target: T6, CYP1A2 (Homo sapiens, UniProt P05177); assay: CYP1A2 inhibition in pooled human liver microsomes (phenacetin O-demethylation); assay type: in vitro ADME; details: Friedelin 100 μM, pooled HLMs
T6 construct: from tissue; host or cells: human liver microsomes
T6 sequence (P05177 1-516): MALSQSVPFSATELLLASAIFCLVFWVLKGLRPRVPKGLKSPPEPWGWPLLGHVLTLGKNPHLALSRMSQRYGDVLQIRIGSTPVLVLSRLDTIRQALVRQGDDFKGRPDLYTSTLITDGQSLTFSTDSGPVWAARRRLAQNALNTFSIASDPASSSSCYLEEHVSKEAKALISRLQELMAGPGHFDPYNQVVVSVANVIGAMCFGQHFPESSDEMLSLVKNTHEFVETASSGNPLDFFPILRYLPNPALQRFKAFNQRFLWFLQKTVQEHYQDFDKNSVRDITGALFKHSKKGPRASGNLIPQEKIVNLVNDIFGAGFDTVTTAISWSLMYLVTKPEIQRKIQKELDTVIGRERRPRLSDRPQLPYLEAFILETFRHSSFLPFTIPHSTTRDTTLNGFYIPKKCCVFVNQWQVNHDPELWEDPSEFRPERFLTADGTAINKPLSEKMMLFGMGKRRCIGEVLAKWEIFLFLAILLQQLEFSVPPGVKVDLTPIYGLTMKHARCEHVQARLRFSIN
Protocol: as §2
as §3, with “There was a 3 min preincubation period (at 37 °C) before the reaction was initiated by adding an NADPH-generating system. The reaction was terminated by adding a 100 μL acetonitrile (10% trichloroacetic acid for CYP2A6) internal standard mix, and the solution was placed on ice. The mixture was centrifuged at 12,000 rpm for 10 min, and an aliquot (50 μL) of the supernatant was transferred for HPLC analysis.” left out, “[2017]). […]” for “[2017]).”

CYP3A4 [4] = biological target: T4, CYP3A4; assay: CYP3A4 inhibition in pooled human liver microsomes (testosterone 6β-hydroxylation); assay type: in vitro ADME; details: pooled HLMs
Protocol: as §2, §3, §4, §5

CYP2D6 = biological target: T7, CYP2D6 (Homo sapiens, UniProt P10635); assay: CYP2D6 inhibition in pooled human liver microsomes (dextromethorphan O-demethylation); assay type: in vitro ADME; details: Friedelin 100 μM, pooled HLMs
T7 construct: from tissue; host or cells: human liver microsomes
Protocol: as §2
as §3, with “There was a 3 min preincubation period (at 37 °C) before the reaction was initiated by adding an NADPH-generating system. The reaction was terminated by adding a 100 μL acetonitrile (10% trichloroacetic acid for CYP2A6) internal standard mix, and the solution was placed on ice. The mixture was centrifuged at 12,000 rpm for 10 min, and an aliquot (50 μL) of the supernatant was transferred for HPLC analysis.” left out, “[2017]). […]” for “[2017]).”

P-glycoprotein (P-gp) = tested on: P-glycoprotein (P-gp); parameters: method as in Lee et al. [2017]; details: ref Lee et al. [2017]; cited from earlier work
CYP2A6 = biological target: T8, CYP2A6 (Homo sapiens, UniProt P11509); assay: CYP2A6 inhibition in pooled human liver microsomes (coumarin 7-hydroxylation); assay type: in vitro ADME; details: Friedelin 100 μM, pooled HLMs
T8 construct: from tissue; host or cells: human liver microsomes
T8 sequence (P11509 1-494): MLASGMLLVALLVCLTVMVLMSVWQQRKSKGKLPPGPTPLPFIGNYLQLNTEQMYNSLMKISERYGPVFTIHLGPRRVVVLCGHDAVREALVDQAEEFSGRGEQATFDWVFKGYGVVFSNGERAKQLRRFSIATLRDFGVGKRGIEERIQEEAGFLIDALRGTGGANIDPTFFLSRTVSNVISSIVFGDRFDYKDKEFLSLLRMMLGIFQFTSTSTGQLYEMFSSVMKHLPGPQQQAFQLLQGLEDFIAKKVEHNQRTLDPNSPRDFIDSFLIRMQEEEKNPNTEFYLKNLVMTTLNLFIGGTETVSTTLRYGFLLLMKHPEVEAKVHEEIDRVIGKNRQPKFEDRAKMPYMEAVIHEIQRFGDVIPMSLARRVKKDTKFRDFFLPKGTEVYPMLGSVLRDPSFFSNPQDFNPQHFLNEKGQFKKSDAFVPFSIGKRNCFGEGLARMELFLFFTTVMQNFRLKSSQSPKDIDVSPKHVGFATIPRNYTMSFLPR
Protocol: as §2
as §3, with “There was a 3 min preincubation period (at 37 °C) before the reaction was initiated by adding an NADPH-generating system. The reaction was terminated by adding a 100 μL acetonitrile (10% trichloroacetic acid for CYP2A6) internal standard mix, and the solution was placed on ice. The mixture was centrifuged at 12,000 rpm for 10 min, and an aliquot (50 μL) of the supernatant was transferred for HPLC analysis.” left out, “[2017]). […]” for “[2017]).”

T1 sequence (P05181 whole entry): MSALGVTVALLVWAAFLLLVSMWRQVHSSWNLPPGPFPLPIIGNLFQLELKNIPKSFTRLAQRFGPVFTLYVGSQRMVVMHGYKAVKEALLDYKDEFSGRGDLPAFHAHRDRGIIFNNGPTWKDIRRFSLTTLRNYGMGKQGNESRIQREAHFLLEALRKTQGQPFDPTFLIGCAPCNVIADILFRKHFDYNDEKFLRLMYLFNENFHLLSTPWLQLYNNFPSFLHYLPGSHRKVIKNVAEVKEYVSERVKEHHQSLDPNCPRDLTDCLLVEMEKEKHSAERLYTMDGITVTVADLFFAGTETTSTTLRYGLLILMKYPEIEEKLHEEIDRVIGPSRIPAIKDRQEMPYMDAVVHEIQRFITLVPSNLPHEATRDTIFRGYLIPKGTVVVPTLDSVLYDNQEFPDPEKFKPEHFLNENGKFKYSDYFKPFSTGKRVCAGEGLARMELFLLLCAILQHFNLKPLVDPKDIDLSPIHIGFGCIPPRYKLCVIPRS
T4 sequence (P08684 whole entry): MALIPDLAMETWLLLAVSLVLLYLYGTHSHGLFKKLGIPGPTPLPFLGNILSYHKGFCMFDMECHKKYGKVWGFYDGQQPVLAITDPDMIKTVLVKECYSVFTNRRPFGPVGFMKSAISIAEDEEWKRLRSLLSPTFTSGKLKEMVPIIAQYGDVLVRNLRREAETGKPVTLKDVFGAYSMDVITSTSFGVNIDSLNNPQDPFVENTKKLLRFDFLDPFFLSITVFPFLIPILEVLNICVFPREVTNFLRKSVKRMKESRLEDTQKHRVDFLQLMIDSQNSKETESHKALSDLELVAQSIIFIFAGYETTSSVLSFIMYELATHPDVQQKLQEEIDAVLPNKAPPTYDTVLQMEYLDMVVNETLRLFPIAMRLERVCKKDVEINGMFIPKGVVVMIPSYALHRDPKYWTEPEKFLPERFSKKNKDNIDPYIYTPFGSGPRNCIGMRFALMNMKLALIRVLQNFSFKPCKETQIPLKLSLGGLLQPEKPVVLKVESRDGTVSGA
T3 sequence (P33261 whole entry): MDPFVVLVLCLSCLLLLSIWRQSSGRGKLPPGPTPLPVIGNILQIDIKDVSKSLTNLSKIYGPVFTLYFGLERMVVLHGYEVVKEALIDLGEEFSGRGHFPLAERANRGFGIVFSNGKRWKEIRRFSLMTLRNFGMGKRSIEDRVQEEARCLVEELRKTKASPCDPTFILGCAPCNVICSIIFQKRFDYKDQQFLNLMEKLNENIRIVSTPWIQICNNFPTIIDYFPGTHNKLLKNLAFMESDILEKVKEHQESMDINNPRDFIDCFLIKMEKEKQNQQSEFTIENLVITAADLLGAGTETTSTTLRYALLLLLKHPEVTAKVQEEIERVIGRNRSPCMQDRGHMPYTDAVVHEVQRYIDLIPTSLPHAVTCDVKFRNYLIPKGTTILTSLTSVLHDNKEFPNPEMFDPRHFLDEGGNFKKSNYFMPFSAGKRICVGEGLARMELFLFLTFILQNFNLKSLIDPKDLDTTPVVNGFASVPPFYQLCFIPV
T2 sequence (P11712 whole entry): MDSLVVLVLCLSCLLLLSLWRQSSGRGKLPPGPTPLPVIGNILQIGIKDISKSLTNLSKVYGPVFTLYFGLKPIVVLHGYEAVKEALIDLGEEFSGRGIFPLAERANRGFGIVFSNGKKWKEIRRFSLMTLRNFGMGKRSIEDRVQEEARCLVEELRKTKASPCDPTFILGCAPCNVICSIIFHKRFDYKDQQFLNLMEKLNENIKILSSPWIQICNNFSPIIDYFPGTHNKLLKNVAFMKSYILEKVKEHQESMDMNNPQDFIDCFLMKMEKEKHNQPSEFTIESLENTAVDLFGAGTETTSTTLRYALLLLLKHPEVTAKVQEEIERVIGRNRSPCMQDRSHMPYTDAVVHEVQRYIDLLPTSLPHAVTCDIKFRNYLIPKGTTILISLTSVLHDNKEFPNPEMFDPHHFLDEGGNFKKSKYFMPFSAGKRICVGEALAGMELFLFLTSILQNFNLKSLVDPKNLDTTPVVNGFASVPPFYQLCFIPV
T7 sequence (P10635 whole entry): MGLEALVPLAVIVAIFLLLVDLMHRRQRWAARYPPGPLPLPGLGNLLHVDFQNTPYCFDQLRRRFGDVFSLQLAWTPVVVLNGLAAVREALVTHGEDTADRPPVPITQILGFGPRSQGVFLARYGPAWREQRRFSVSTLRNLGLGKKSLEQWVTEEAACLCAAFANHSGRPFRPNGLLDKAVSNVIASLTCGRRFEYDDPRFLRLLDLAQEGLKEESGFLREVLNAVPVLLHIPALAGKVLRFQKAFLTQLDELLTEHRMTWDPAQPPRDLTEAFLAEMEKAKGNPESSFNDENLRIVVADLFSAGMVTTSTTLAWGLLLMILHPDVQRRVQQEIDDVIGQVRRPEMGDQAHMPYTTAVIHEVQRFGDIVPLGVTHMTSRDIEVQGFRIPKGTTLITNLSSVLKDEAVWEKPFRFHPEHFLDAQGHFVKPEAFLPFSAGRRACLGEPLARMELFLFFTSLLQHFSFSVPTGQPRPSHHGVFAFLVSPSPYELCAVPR

## C[C@H]1C(=O)CC[C@@H]2[C@]1(C)CC[C@H]1[C@@]2(C)CC[C@@]2(C)[C@@H]3CC(C)(C)CC[C@]3(C)CC[C@]12C [Friedelin]
CYP2E1 [1]
  Time-dependent inhibition of CYP2E1 activity: not affected
CYP2E1 [2]; Lineweaver–Burk plots
  Mode of inhibition of CYP2E1: competitive
CYP2E1 [2]; human, pooled human liver microsomes, pH 7.4, probe chlorzoxazone (6-hydroxylation), Friedelin 100 μM, chlorzoxazone 6-hydroxylation, read-out: CYP2E1 activity, % of control activity
  activity at 100 μM: 18.9%
CYP2E1 [2]; chlorzoxazone 6-hydroxylation
  IC50: 22.5 µM
CYP2E1 [2]; secondary Lineweaver–Burk plot, chlorzoxazone 25–200 μM
  Ki: 18 µM
CYP2C9
  Inhibition of CYP2C9 activity: could not inhibit
CYP2C19
  Inhibition of CYP2C19 activity: could not inhibit
CYP3A4 [3]; Friedelin 20 μM, 30 min preincubation with HLM and NADPH
  Time-dependent inhibition of CYP3A4 activity: decreased with the incubation time
CYP3A4 [3]; human, human liver microsomes, HLM, Friedelin 0–50 μM, preincubation 0–30 min with NADPH, read-out: Kinact/Ki for CYP3A4 inactivation (converted)
  kinact/KI: 80.7 M⁻¹ s⁻¹
CYP3A4 [3]; saturating concentration of Friedelin incubated with HLM
  CYP3A4 inactivated each minute (Kinact): approximately 5.9%
CYP2C8
  Inhibition of CYP2C8 activity: could not inhibit
CYP1A2
  Inhibition of CYP1A2 activity: could not inhibit
CYP3A4 [4]; Lineweaver–Burk plots
  Mode of inhibition of CYP3A4: noncompetitive
CYP3A4 [4]; human, pooled human liver microsomes, pH 7.4, probe testosterone (6β-hydroxylation), Friedelin 100 μM, testosterone 6β-hydroxylation, read-out: CYP3A4 activity, % of control activity
  activity at 100 μM: 7.5%
CYP3A4 [4]; secondary Lineweaver–Burk plot, testosterone 20–100 μM
  Ki: 6.16 µM
CYP3A4 [4]; testosterone 6β-hydroxylation
  IC50: 10.8 µM
CYP2D6
  Inhibition of CYP2D6 activity: could not inhibit
P-glycoprotein (P-gp)
  Effect on ATPase activity of P-glycoprotein: could suppress ATPase activity
CYP2A6
  Inhibition of CYP2A6 activity: could not inhibit
